Measurements from patent US20240350447A1, “DELIVERY METHODS FOR TREATING BRAIN AND CENTRAL NERVOUS SYSTEM DISEASES” (JENIVISION INC., priority 2021, published 2024).
Values joined by “and” are separate entries in the source; they are usually repeats but may differ in a detail not shown here. Identical values can stand only once. Like-named read-outs stand apart in the source and are kept apart here.

Key:
[1] = Biodistribution of DHA after periorbital skin (NIODP) application to one eye; format: in vivo, Cynomolgus monkeys; conditions: undosed/dosed retina, 6755.1 μg to OS via NIODP
Method: An experiment was performed to determine the biodisposition of DHA following topical application to the periorbital skin that surrounds the anterior portion of the globe was performed.
Docosahexaenoic acid (DHA) is an omega-3 fatty acid and an essential component for neuronal formation, function and protection. […] […] High concentrations of DHA (from 35.6 to 97.3 μg/g) were detected in the undoes retina, which is similar to the dosed retina.
Moreover, compared to the baseline retina/plasma ratio of 7-fold, and with no significant changes in plasma, the retina/plasma ratios of DHA in the undosed eye were at least 30-fold at each post dose timepoint, signifying that the undosed retina uptake of DHA was not from blood circulation.

[2] = Baseline endogenous levels of DHA in monkeys; format: in vivo; conditions: no NIODP dosing
Excerpt: The endogenous levels DHA is originated from normal diet and not attributable to NIODP administration.

[3] = Baseline endogenous levels of DHA, DHA-EE and JV-DE1; format: in vivo; conditions: undosed Bama minipigs
Method: Endogenous levels were measured in the plasma, cerebrospinal fluid, ocular tissues (retina, optic nerve, ocular muscles), and brain. The endogenous levels DHA are not attributable to NIODP administration of DHA, DHA-EE, or JV-DE1. The baseline data collected in Table 4 was taken from the same lot of pigs, from the same vendor, as the information collected in Tables 5-7.

[4] = DHA distribution after single periorbital skin administration; format: in vivo, Bama minipigs; conditions: for concentration at 3 h: Bama, minipig, topical, 6092 μg/eye
Method: In this example, 6092 μg/eye of DHA was applied to the periorbital skin of a left eye of a Bama minipig. […] 27133.8 ng/g of tissue and 24795.8 ng/g of tissue of DHA was measured in the left and right halves of the brain, respectively. Taking the average of these two numbers, the amount of DHA present in the brain 3 hours post-dosage was 25964.9 ng/g.
Given that the average Bama pig brain weighs around 60 g, the amount of DHA delivered to the brain can be estimated to be 312,408 ng or 312 μg. Therefore, the percentage of administered dose=312 μg delivered to brain/6092 μg dosed=5.1% of DHA topically administered to the pig via periorbital administration was delivered to the brain. As a comparison, only about 0.025% of DHA that is orally administered is delivered to the brain or CNS.

[5] = oral administration; comparison value; cited from earlier work
[6] = 3 h, DHA 6092 μg to periorbital skin of left eye

- OD/OS retina ratio of DHA ([1]; 6 h): 99%
- OD/OS retina ratio of DHA ([1]; 24 h): 75%
- Calculated Concentration, endogenous DHA in cornea ([2]; double blank samples): BLQ
- Calculated Concentration, endogenous DHA in plasma ([2]; double blank samples): 0.5 µg/mL and 0.6 µg/mL
- Calculated Concentration, endogenous DHA in retina ([2]; double blank samples): 16 µg/g and 17 µg/g
- Calculated Concentration, endogenous DHA in upper eyelid ([2]; double blank samples): BLQ
- Calculated Concentration, endogenous DHA in vitreous humor ([2]; double blank samples): BLQ
- Baseline endogenous concentration in brain [3]: 20758 ng/g
- Baseline endogenous concentration in cerebrospinal fluid [3]: BLQ
- Baseline endogenous concentration in eye tissue homogenate including (Retina, optic nerve, ocular muscle) [3]: 2643.5 ng/g
- Baseline endogenous concentration in plasma [3]: 122.1 ng/mL
- Drug Concentration in Plasma ([4]; 0 h, DHA 6092 μg to periorbital skin of left eye): BLQ
- Drug Concentration in Plasma ([4]; 1 h, DHA 6092 μg to periorbital skin of left eye): BLQ
- Percentage of administered dose delivered to the brain ([4]; 3 h, DHA 6092 μg periorbital, whole brain estimate): 5.1%
- % of administered dose: Cerebrospinal fluid [4, 6]: 0%
- % of administered dose: brain-left [4, 6]: 6%
- % of administered dose: brain-right [4, 6]: 4%
- % of administered dose: inferior rectus muscle-left [4, 6]: 0.004%
- % of administered dose: inferior rectus muscle-right [4, 6]: 0.01%
- % of administered dose: lateral rectus muscle-left [4, 6]: 0.02%
- % of administered dose: lateral rectus muscle-right [4, 6]: 0.03%
- % of administered dose: medial rectus muscle-left [4, 6]: 0.01%
- % of administered dose: medial rectus muscle-right [4, 6]: 0.01%
- % of administered dose: optic nerve-left [4, 6]: 0.03%
- % of administered dose: optic nerve-right [4, 6]: 0.05%
- % of administered dose: retina-left [4, 6]: 0.2%
- % of administered dose: retina-right [4, 6]: 0.1%
- % of administered dose: superior rectus muscle-left [4, 6]: 0.01%
- % of administered dose: superior rectus muscle-right [4, 6]: 0%
- Drug Concentration in Plasma [4, 6]: BLQ
- concentration at 3 h ([4]; brain (average of left and right halves), 3 h, DHA 6092 μg to periorbital skin of left eye, read-out: Average DHA present in the brain (left and right halves)): 26000 ng/g
- concentration at 3 h ([4]; brain, left half, 3 h, DHA 6092 μg to periorbital skin of left eye, read-out: Drug Concentration in Tissue: brain-left): 27100 ng/g
- concentration at 3 h ([4]; brain, right half, 3 h, DHA 6092 μg to periorbital skin of left eye, read-out: Drug Concentration in Tissue: brain-right): 24800 ng/g
- concentration at 3 h ([4]; cerebrospinal fluid, 3 h, DHA 6092 μg to periorbital skin of left eye, read-out: Drug Concentration in Tissue: Cerebrospinal fluid): 0 ng/g
- concentration at 3 h ([4]; inferior rectus muscle, left (dosed side), 3 h, DHA 6092 μg to periorbital skin of left eye, read-out: Drug Concentration in Tissue: inferior rectus muscle-left): 2750 ng/g
- concentration at 3 h ([4]; inferior rectus muscle, right (undosed side), 3 h, DHA 6092 μg to periorbital skin of left eye, read-out: Drug Concentration in Tissue: inferior rectus muscle-right): 2340 ng/g
- concentration at 3 h ([4]; lateral rectus muscle, right, 3 h, DHA 6092 μg to periorbital skin of left eye, read-out: Drug Concentration in Tissue: lateral rectus muscle-right): 1980 ng/g
- concentration at 3 h ([4]; lateral rectus muscle, 3 h, DHA 6092 μg to periorbital skin of left eye, read-out: Drug Concentration in Tissue: lateral rectus muscle-left): 8100 ng/g
- concentration at 3 h ([4]; medial rectus muscle, left (dosed side), 3 h, DHA 6092 μg to periorbital skin of left eye, read-out: Drug Concentration in Tissue: medial rectus muscle-left): 2720 ng/g
- concentration at 3 h ([4]; medial rectus muscle, right, 3 h, DHA 6092 μg to periorbital skin of left eye, read-out: Drug Concentration in Tissue: medial rectus muscle-right): 1520 ng/g
- concentration at 3 h ([4]; optic nerve, left (dosed side), 3 h, DHA 6092 μg to periorbital skin of left eye, read-out: Drug Concentration in Tissue: optic nerve-left): 10400 ng/g
- concentration at 3 h ([4]; optic nerve, right (undosed side), 3 h, DHA 6092 μg to periorbital skin of left eye, read-out: Drug Concentration in Tissue: optic nerve-right): 15300 ng/g
- concentration at 3 h ([4]; retina, left (dosed side), 3 h, DHA 6092 μg to periorbital skin of left eye, read-out: Drug Concentration in Tissue: retina-left): 61700 ng/g
- concentration at 3 h ([4]; retina, right (undosed side), 3 h, DHA 6092 μg to periorbital skin of left eye, read-out: Drug Concentration in Tissue: retina-right): 42100 ng/g
- concentration at 3 h ([4]; superior rectus muscle, right, 3 h, DHA 6092 μg to periorbital skin of left eye, read-out: Drug Concentration in Tissue: superior rectus muscle-right): 0 ng/g
- concentration at 3 h ([4]; superior rectus muscle, 3 h, DHA 6092 μg to periorbital skin of left eye, read-out: Drug Concentration in Tissue: superior rectus muscle-left): 3050 ng/g
SMILES: CC/C=C\C/C=C\C/C=C\C/C=C\C/C=C\C/C=C\CCC(=O)O [DHA, docosahexaenoic acid]
- Endogenous levels of DHA in monkey ocular tissues ([2]; LLOQ=0.5 μg/mL): mostly below the lower limit of quantification (LLOQ=0.5 μg/mL) or negligible
- Share of orally administered DHA delivered to the brain or CNS [5]: about 0.025%
